Assay results from EP2197883B1, “Catecholamine derivative useful for the treatment of parkinson's disease” (H. Lundbeck A/S, priority 2007, dated 2009).

Key:
[1] = man, after oral dosing; cited from earlier work
PD patients = conditions: intravenous (IV); cited from earlier work
[2] = test system: mouse model of severe dopamine depletion; assay: Superiority model; type: in vivo; conditions: mice
Source text: Both Apomorphine and L-DOPA stimulate D1 and D2-like dopamine receptors.

Row | SMILES | oral bioavailability [1] | antiparkinson efficacy (PD patients) | reversal of motility deficits / restoration of locomotion [2]
1 | CCCc1cc2c(s1)CN[C@@H]1CCc3cc(OC(C)=O)c(OC(C)=O)cc3[C@@H]21 [Adrogolide] | ~4% | comparable to that of L-DOPA | –
2 | CN1CCc2cccc3c2[C@H]1Cc1ccc(O)c(O)c1-3 [Apomorphine] | – | – | able to reverse motility deficits
3 | N[C@@H](Cc1ccc(O)c(O)c1)C(=O)O [L-DOPA, (levo)-3,4-dihydroxy phenylalanine] | – | – | able to reverse motility deficits
